In patent publication US20260318831A1 (University of Cincinnati, priority 2023, published 2026):

Assays:
Type in all cases: cell-based
[1] = system: endolysosomes in HeLa cells; test: Dynamics of PyQPMe-stained endolysosomes during autophagy
Method: FIGS. 6A-6H depict the dynamics of PyQPMe-stained endolysosomes during autophagy. FIG. 6A. Confocal images of HeLa cells incubated with PyQPMe following treatment with or without CCCP for 24 h. FIG. 6B. Quantification of total endolysosomes and late endosomes/lysosomes in PyQPMe-stained HeLa cells with or without CCCP treatment. FIG. 6C. The ratio of the number of late endosomes/lysosomes to total endolysosomes in PyQPMe-stained HeLa cells treated with or without CCCP. FIG. 6D. Quantification of ratio of red to green intensity in PyQPMe-stained HeLa cells without CCCP treatment. FIG. 6E. Quantification of ratio of red to green intensity in PyQPMe-stained HeLa cells with CCCP treatment for 24 h. FIG. 6F. Confocal images of HeLa cells incubated with PyQPMe following treatment with or without rapamycin for 24 h. FIG. 6G. Quantification of total endolysosomes and late endosomes/lysosomes in PyQPMe-stained HeLa cells with or without rapamycin treatment. FIG. 6H. The ratio of the number of late endosomes/lysosomes to total endolysosomes in PyQPMe-stained HeLa cells treated with or without rapamycin. Data are given as M±SEM (n=10 independent samples from 10 cells for each statistical analysis); the statistical differences were analyzed by Student's t-test, p<0.05 is considered to statistical significant (**** p≤0.0001; ns p>0.05).
Autophagy is a natural degradation process of cells that removes unnecessary or damaged biological macromolecules or organelles to maintain homeostasis. After autophagosomes engulf unnecessary components, both late endosomes and lysosomes can fuse with autophagosomes to degrade autophagosomal cargo by forming amphisomes and autolysosomes, respectively. To study the behavior of endolysosomes during autophagy, carbonyl [COMPOUND LEFT OUT] m-chlorophenyl hydrazone (CCCP), a common inducer for mitophagy (one type of autophagy), was exploited to induce autophagy in PyQPMe-stained cells. Cells were treated with 10 μM CCCP for 24 h prior to PyQPMe staining. […] As mentioned above (FIG. 2C), pH 5-6 is the cut-off point for the red to green fluorescence intensity ratio of PyQPMe, which perfectly matches the pH changes during conversion from early endosomes to late endosomes. […] Inversely, when the ratio is greater than 1, it represents the population of late endosomes/lysosomes (FIGS. 3D, 6D, 6E).
Rapamycin, a classical autophagy inducer, activates autophagy by inhibiting mTOR protein activation. To investigate the effect of rapamycin on endolysosomes, we treated HeLa cells with 0.5 μM rapamycin for 24 h prior to PyQPMe staining. […] To track the dynamics of endolysosomes in classical autophagy, the total endolysosomes and late endosomes/lysosomes in rapamycin-treated cells were quantified. […] Meanwhile, similar to the CCCP-induced mitophagy (FIGS. 6A, 6C), the proportion of late endosomes/lysosomes to total endolysosomes remained the same (~54%) during classical autophagy process (FIG. 6H).
(§1) Leica Stellaris 8 Confocal imaging. High-resolution images were acquired on a commercial Leica Stellaris 8 Confocal Microscope under LIGHTNING mode. Laser powers were set at 10% intensity for 405 nm and 640 nm channels. The objective was 63×/1.4. High-resolution images were captured from the randomly selected field of view and analyzed with Leica LAS X and ImageJ software. All the images were exported on the Auto scale of the Leica LAS X software. Cells were seeded on glassed-bottomed cell dishes (MatTek) for 24 hours. Cells stained with PyQPMe (20 nM, 10 min) were treated with Wortmannin (1 μM, 24 h), CCCP ([…], 24 h), rapamycin (0.5 μM, 24 h), chloroquine (25 μM, 30 min), and NH4Cl (50 mM, 30 min). All PCC values were analyzed in the CellProfiler.

[2] = system: HeLa cells; test: Photobleaching comparison of LTR and PyQPMe; settings: continuous confocal laser at 100% power
Excerpt: FIGS. 4A-4G depict the characterization of imaging properties of PyQPMe-stained endolysosomes. FIG. 4A. Confocal image of PyQPMe-stained endolysosomes and fluorescence intensity profile (FIG. 4B) of the write line in FIG. 4A. FIG. 4C. Confocal image of PyQPMe-stained late endosomes/lysosomes and fluorescence intensity profile (FIG. 4D) of the write line in FIG. 4C. FIG. 4E. Confocal images of HeLa cells labeled with LTR and PyQPMe and 3D fluorescence intensity plots of rectangles of integration. FIG. 4F. Continuous imaging of HeLa cells labeled with LTR or PyQPMe at 100% laser intensity for photobleaching, and each scan time was 10 s, images were captured under a red channel. FIG. 4G. Normalized fluorescence intensity of LTR and PyQPMe in FIG. 4F.
Resistance to photobleaching is a crucial property of probes that determines whether they can be used for long-term fluorescence tracking. To characterize this property, a photobleaching comparison study between LTR and PyQPMe was done in HeLa cells (FIG. 4F).
Leica Stellaris 8 Confocal imaging. High-resolution images were acquired on a commercial Leica Stellaris 8 Confocal Microscope under LIGHTNING mode. Laser powers were set at 10% intensity for 405 nm and 640 nm channels. […] High-resolution images were captured from the randomly selected field of view and analyzed with Leica LAS X and ImageJ software. […] All PCC values were analyzed in the CellProfiler.

[3] = system: HeLa cells; test: Confocal imaging of PyQPMe uptake by endocytosis; settings: chloroquine 25 μM, 30 min; NH4Cl 50 mM
Method: In some aspects, the probes of the present disclosure can be administered to living cells, either in vitro or in vivo. To take advantage of the absorption and emission spectra of PyQPMe, this probe was administered in high-resolution microscopy for living cells. The toxicity of PyQPMe was examined at first before characterizing its imaging properties. Cell Counting Kit-8 (CCK-8) was used to investigate the viability of HeLa cells stained with PyQPMe. […] Next, PyQPMe was characterized by Leica Stellaris Confocal Microscope in the LIGHTNING module for high-resolution imaging. […] The signal tended to be endolysosomes because endolysosomes have a low pH range from 4.7 to 6.3. […] Since low temperatures can inhibit endocytosis, experiments at a lower temperature were performed.
as §1

[4] = system: endolysosomes in HeLa cells; test: Dynamics of PyQPMe-stained endolysosomes (puncta counting); settings: wortmannin 1 μM, 24 h
Method: FIGS. 5A-5H depict the characterization of dynamics of PyQPMe-stained endolysosomes. FIG. 5A. Confocal images of HeLa cells stained with PyQPMe following treatment with or without Wortmannin for 24 h. FIG. 5B. Schematic illustration of the effect of Wortmannin which inhibits the conversion from early endosomes into late endosomes. FIG. 5C. Quantification of total endolysosomes and late endosomes/lysosomes in PyQPMe-stained HeLa cells with or without Wortmannin treatment. FIG. 5D. The ratio of the number of late endosomes/lysosomes to total endolysosomes in PyQPMe-stained HeLa cells treated with or without Wortmannin. FIG. 5E. Confocal images of HeLa cells stained with PyQPMe for 10 min and 60 min. FIG. 5F. The mean red puncta fluorescence intensity of PyQPMe-stained HeLa cells for 10 min and 60 min incubation. FIG. 5G. Quantification of total endolysosomes and late endosomes/lysosomes in PyQPMe-stained HeLa cells for 10 min and 60 min. FIG. 5H. The ratio of the number of late endosomes/lysosomes to total endolysosomes in PyQPMe-stained HeLa cells for 10 min and 60 min. Data are given as M±SEM (n=10 independent samples from 10 cells for each statistical analysis); the statistical differences were analyzed by Student's t-test, p<0.05 is considered to statistical significant (** p≤0.01; *** p≤0.001; **** p≤0.0001; ns p>0.05).
Because of the popularity of quantitative cell biology, it is important to design powerful tools that can digitize individual cells and subcellular organelles to elucidate biological problems in detail. With its great pH response, long-term photostability, and excellent signal-to-noise ratio for high-resolution imaging, PyQPMe was successfully used to track the dynamics of endolysosomes within cells by counting the number of puncta fluorescence signals in both green and red channels (FIG. 5A).
Next, the effects of different incubation time on the endocytic pathway were tested.
as §1

**Q.** How did the “number of total endolysosomes and late endosomes/lysosomes vs controls” value ([1]; CCCP 10 μM, 24 h (mitophagy)) turn out when `N#CC(C#N)=NNc1cccc(Cl)c1` [CCCP] was run?
**A.** significant increase

**Q.** And the “ratio of late endosomes/lysosomes to total endolysosomes” value ([1]; CCCP 10 μM, 24 h, by counting (FIG. 6C))?
**A.** ~ 55%

**Q.** What about the “ratio of late endosomes/lysosomes to total endolysosomes from red to green intensity” value ([1]; CCCP 24 h (FIG. 6E), 52% without CCCP (FIG. 6D)) of the same molecule?
**A.** 56%

**Q.** And the “acidity of early and late endosomes” value ([1]; CCCP, distribution of red to green intensity ratio)?
**A.** both early and late endosomes became more acidic

**Q.** `CN(C)CCNC(=O)CCc1ccc2n1[B-](F)(F)[N+]1=C(c3ccc[nH]3)C=CC1=C2` [LTR, reference compound] was tested. Which “fluorescence intensity on photobleaching” value [2] did it give?
**A.** disappeared rapidly after two scans

**Q.** `Cl.N` [NH4Cl, reference compound] was tested. Which “effect of endocytic inhibitor on PyQPMe fluorescence” value [3] did it give?
**A.** significant reduction in fluorescence

**Q.** Which “effect of endocytic inhibitor on PyQPMe fluorescence” value [3] does the source give for `CCN(CC)CCCC(C)Nc1ccnc2cc(Cl)ccc12` (stereo not drawn) [chloroquine, reference compound] here?
**A.** significant reduction in fluorescence

**Q.** How did the “fluorescent spots in both green and red channels” value ([1]; rapamycin 0.5 μM, 24 h) turn out when `CO[C@H]1C[C@@H]2CC[C@@H](C)[C@@](O)(O2)C(=O)C(=O)N2CCCC[C@H]2C(=O)O[C@H]([C@H](C)C[C@@H]2CC[C@@H](O)[C@H](OC)C2)CC(=O)[C@H](C)/C=C(\C)[C@@H](O)[C@@H](OC)C(=O)[C@H](C)C[C@H](C)/C=C/C=C/C=C/1C` [rapamycin] was run?
**A.** more fluorescent spots

**Q.** What about the “number of total endolysosomes and late endosomes/lysosomes” value ([1]; rapamycin 0.5 μM, 24 h) of the same molecule?
**A.** significantly increased

**Q.** And the “proportion of late endosomes/lysosomes to total endolysosomes” value ([1]; rapamycin 0.5 μM, 24 h (FIG. 6H))?
**A.** ~ 54%

**Q.** What does the source list for `COC[C@H]1OC(=O)c2coc3c2[C@@]1(C)C1=C(C3=O)[C@@H]2CCC(=O)[C@@]2(C)C[C@H]1OC(C)=O` [wortmannin, reference compound]?
**A.** number of endolysosomes vs untreated cells [4]: much higher than that in untreated cells; percentage of late endosomes/lysosomes in total endolysosomes vs untreated [4]: significantly decreased
